PMC11928621 (Nature Communications, 2025)
Where a name gives a salt, the structure may show the parent alone. Blank lines part the entries; values can stand above or below the molecule they belong to.

Experiments:
LYCHOS = target: T1, LYCHOS (Homo sapiens, UniProt Q7Z3F1); test: SPR Kd and cryo-EM structure of the complex; type: binding
T1 sequence (Q7Z3F1 1-870): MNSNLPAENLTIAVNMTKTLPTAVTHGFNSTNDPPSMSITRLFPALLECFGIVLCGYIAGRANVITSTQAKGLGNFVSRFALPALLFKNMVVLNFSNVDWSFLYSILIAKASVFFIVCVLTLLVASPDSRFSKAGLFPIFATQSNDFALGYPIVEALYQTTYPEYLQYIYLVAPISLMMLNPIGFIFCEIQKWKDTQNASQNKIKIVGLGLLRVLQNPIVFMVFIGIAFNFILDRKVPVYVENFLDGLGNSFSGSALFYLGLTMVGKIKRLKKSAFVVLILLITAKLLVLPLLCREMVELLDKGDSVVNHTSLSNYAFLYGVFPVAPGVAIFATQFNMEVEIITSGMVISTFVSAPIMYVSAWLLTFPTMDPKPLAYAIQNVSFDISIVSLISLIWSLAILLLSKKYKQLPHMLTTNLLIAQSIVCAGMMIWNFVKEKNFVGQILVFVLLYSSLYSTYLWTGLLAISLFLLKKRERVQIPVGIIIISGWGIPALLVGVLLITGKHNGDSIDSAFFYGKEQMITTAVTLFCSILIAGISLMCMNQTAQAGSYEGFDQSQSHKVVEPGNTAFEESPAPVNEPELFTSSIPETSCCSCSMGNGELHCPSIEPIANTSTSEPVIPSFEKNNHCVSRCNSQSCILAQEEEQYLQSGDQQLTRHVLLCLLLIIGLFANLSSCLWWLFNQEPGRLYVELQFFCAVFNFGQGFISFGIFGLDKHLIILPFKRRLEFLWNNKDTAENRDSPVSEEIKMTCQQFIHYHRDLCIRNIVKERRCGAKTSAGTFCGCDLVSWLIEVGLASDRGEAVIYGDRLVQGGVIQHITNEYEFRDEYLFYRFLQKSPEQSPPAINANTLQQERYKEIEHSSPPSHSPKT

cryo-EM structure = target: the molecule itself; test: cryo-EM structure

- Kd (LYCHOS): ~150 µM
Molecule: O=S(=O)(O)Oc1c[nH]c2ccccc12 [IS, indoxyl sulfate]

B1: human LYCHOS (lysosomal cholesterol signaling protein), C-terminal FLAG and 10×His tags (natural protein, UniProt Q7Z3F1 1-870, looked up)
chain: T1 sequence (Q7Z3F1 1-870)
modifications: N-acetylglucosamine linked to Asn309
- stoichiometry N (cryo-EM structure): 2
